Experiments:
Human KLKB1 = Human KLKB1 (Homo sapiens (Human), UniProt P03952); test: KLKB1 kallikrein activity inhibition assay (chromogenic substrate S-2302); format: biochemical
Method in brief: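 Enzyme at a final 3 nM was assayed in 0.05 M Tris pH 7.4, 0.01 M NaCl and 0.2% PEG-8000 at room temperature, with compounds as ten-point threefold dilutions.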

[1] = target: Recombinant human tissue kallikrein (KLK1) (Homo sapiens (Human), UniProt P06870); test: KLK1 kallikrein activity inhibition assay (Pro-Phe-Arg-AMC substrate); format: biochemical
Description: The KLK1 kallikrein activity reported herein (e.g., Tables B and C) was obtained as follows. Recombinant human tissue kallikrein (KLK1) was obtained from R&D Systems. […] KLK1 enzyme is activated by incubating 0.5 mg/ml KLK1 combined with 0.1 μg/ml thermolysin in a buffer of 0.05 M Tres (pH 7.5), 0.15 M NaCl, and 0.01 M CaCl2 for one hour at 37° C. The thermolysin is then deactivated by the addition of equal parts 20 mM 1, 10 phenanthroline solution in water. The activated KLK1 solution is then added to CHES buffer (0.05 M CHES, 0.15 M NaCl, 0.01 M CaCl2, pH 10) for a final concentration of 5 nM along with the test article and incubated for 10 minutes. […] Substrate activation is read 10 minutes after substrate addition using a Synergy H1 multifunction plate reader (Biotek) programmed with a 360 nm excitation wavelength and a 480 nm emission wavelength. Inhibitor response was established by adding test compound as ten point, three-fold serial dilutions, as known in the art. The IC50 was calculated by plotting the percent (%) inhibition against compound concentration and fitting the data to a constrained four parameter sigmoidal curve, as known in the art.

[2] = Trans-corneal permeability in vitro across excised rabbit corneas (Franz chamber); format: in vitro ADME; conditions: excised rabbit cornea, compound in PBS, 37° C., four hours
Description: In this example, trans-corneal permeability of compounds are measured in-vitro across excised rabbit corneas. Excised rabbit cornea are acquired from Pel-Freez and delivered in DMEM culture media on ice overnight. The test apparatus is a curved 9 mm Franz chamber (Permegear) suitable for rabbit eyes. Test compound is prepared in PBS buffer. The compound solution is added to the donor chamber of the Franz chamber and the entire apparatus placed in an incubator at 37° C. for four hours. During incubation and at every subsequent hour, a sample is removed from the receiver chamber and analyzed by HPLC (Shimadzu Prominence) using a C18 column (Phenomenex 00E-4605-E0) in reverse phase with acetonitrile in water. The apparent permeability coefficient Papp (cm/s) is calculated as
where dM/dt is the flux (nmol/s) across the cell layers or cornea, A is the exposed surface area (cm^2) of the insert membrane of rabbit cornea, and C0 is the initial drug concentration (μM) in the donor compartment.

malignant breast tumors = conditions: treated mice, cited from earlier work
Human thrombin = Human thrombin (Homo sapiens (Human), UniProt P00734); test: Thrombin protease activity inhibition assay (chromogenic substrate S-2238); format: biochemical; conditions: 3 nM thrombin, 125 μM S-2238, 10 min pre-incubation, RT
Method in brief: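 Ten-point, three-fold serial dilutions of compound tested against 3 nM enzyme at RT in Tris buffer (0.05 M, pH 7.4) with 0.015 M NaCl and 0.01% PEG-8000.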

[3] = Pharmacokinetics in mice (i.v. and p.o.); format: in vivo, male CD-1 mice; conditions: male, CD-1, mouse, in vivo
Description: Each compound is administered intravenously (i.v.) as a single dose via tail vein or orally (p.o.) as a single dose via gastric gavage to male CD-1 mice of nominal weights between 20 g and 26 g. Nominal doses are 1 mg/kg and 5 mg/kg for i.v. and p.o., respectively. In some examples (dose type A), both p.o. and i.v. doses are prepared by dissolving the test compound in 5% dimethyl acetamide and diluted in tetraethylene glycol for a final concentration of 0.25 mg/mL. In other examples (dose type B), i.v. doses are prepared by dissolving test compounds in 20% dimethyl acetamide, 40% polyethylene glycol 300 and 40% phosphate buffered saline, and p.o. doses are prepared by dissolving test compounds in carboxymethyl cellulose suspension (1% by weight) in water and 2.5% dimethyl acetamide.
Animals are housed in standard holding cages with food and water available ad libitum except for animals used for p.o. dosing which are fasted overnight prior to dosing. Samples are taken in triplicate via cardiac puncture at times prior to dosing and at 0.083 (i.v. only), 0.25, 0.5, 1, 2, 4, 8, and 24 hours after administration. Plasma is obtained by centrifuge and stored frozen until analyzed by LC-MS/MS using a Shimadzu VP System HPLC coupled to a Applied Biosystems MDS SCIEX API 3000 triple quadrapole MS. Assay results are calibrated using reference samples prepared in a range between 1.5 and 5000 ng/mL.
Pharmacokinetic parameters are calculated from mean concentration values using a non-compartmental analysis as described in the following and as apparent to those of ordinary skill in the art. Half-lives (t1/2) and elimination rate constants (λ) are determined by log linear regression using equal weighting on the last three finite sample time points. Concentration at time zero (C0) for the i.v. data is established by the extrapolation of log linear regression using equal weighting on the first three sample time points. Area under the curve (AUC) values are calculated using linear trapezoidal integration. Systemic clearance (CL) is calculated as the ratio of dosage and AUC. […] Percent oral bioavailability (% F) is determined from the ratio of i.v. and p.o. AUC values weighted by dosage.

Recombinant human tissue kallikrein (KLK1), sequence (P06870 25-262): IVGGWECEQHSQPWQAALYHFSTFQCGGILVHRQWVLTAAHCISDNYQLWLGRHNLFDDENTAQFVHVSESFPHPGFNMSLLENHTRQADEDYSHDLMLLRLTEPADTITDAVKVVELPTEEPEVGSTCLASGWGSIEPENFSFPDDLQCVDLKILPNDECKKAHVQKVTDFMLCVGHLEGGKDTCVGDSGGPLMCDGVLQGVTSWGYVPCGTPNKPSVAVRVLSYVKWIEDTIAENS
Human KLKB1, sequence (P03952 391-638 limits assumed): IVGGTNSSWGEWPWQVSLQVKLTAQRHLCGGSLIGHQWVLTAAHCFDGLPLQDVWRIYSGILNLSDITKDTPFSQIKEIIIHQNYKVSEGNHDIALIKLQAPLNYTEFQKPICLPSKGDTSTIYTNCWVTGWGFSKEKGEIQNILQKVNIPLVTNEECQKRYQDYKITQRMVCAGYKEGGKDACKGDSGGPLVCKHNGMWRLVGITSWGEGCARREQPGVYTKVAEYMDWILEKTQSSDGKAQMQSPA
Human KLKB1, sequence (P03952 20-390 partner limits assumed): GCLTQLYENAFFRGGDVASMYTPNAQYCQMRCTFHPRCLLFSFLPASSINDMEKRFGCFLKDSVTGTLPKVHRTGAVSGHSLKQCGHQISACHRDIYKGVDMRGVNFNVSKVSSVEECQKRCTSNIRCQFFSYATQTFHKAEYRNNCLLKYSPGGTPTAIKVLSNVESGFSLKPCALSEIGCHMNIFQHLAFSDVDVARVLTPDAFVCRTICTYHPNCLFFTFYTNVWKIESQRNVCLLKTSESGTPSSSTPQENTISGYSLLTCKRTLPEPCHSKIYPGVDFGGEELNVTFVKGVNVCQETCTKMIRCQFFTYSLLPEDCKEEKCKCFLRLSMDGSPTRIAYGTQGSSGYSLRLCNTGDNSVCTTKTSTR

Compound `COc1ccccc1C(=O)n1nc(-c2ccccn2)nc1NCc1ccc(Cl)s1` [Cmpd 22] has an IC50 (Human KLKB1; Table C) of less than 100 nM, an IC50 ([1]; Table C) of 10 to 100 µM and a Papp at 4 h [2] of 5.7 ×10⁻⁶ cm/s.

For `CCCCCCOC(=O)N=C(N)c1ccc(NCc2nc3cc(C(=O)N(CCC(=O)OCC)c4ccccn4)ccc3n2C)cc1` [dabigatran etexilate], the “reduction in tumor volume” value (malignant breast tumors; at 4 weeks) is given as 50% and the “reduced tumor cells in the blood and liver micrometastases” value (malignant breast tumors) is given as 50-60%.

Compound `Cn1cccc(-c2cc(NCc3ccc(Cl)s3)n(C(=O)c3ccoc3)n2)c1=O` [Cmpd 23, 3-(5-[(5-chlorothiophen-2-yl)methyl]amino-1-[(furan-3-yl)carbonyl]-1H-pyrazol-3-yl)-1-methyl-1,2-dihydropyridin-2-one] has an IC50 (Human thrombin) of less than 100 nM, an IC50 (Human KLKB1; Table B) of 1000 to 10000 nM and an IC50 ([1]; Table B) of 10 to 100 µM. The AUC ([3]; iv, 1 mg/kg) was 100 ng·h/mL, the C0 ([3]; iv, 1 mg/kg) was 400 ng/mL and the Vd ([3]; iv, 1 mg/kg) was 5 L/kg. For the same compound, the clearance ([3]; iv, 1 mg/kg) was 133 mL/min/kg, the half-life ([3]; iv, 1 mg/kg) was 30 min and the AUC ([3]; po, 5 mg/kg) was 80 ng·h/mL. It also gave a bioavailability ([3]; po, 5 mg/kg) of 10% and a half-life ([3]; po, 5 mg/kg) of 36 min.

Compound `O=C(c1ccc(N2CCOCC2)cc1)n1nc(-c2cccn(Cc3cccnc3)c2=O)cc1NCc1ccc(Cl)s1` [Cmpd 213, 3-(5-[(5-chlorothiophen-2-yl)methyl]amino-1-[4-(morpholin-4-yl)phenyl]carbonyl-1H-pyrazol-3-yl)-1-(pyridin-3-ylmethyl)-1,2-dihydropyridin-2-one] has an IC50 (Human thrombin) of less than 100 nM, an IC50 (Human KLKB1; Table B) of 100 to 1000 nM and an IC50 ([1]; Table B) greater than 100 µM.

Compound `O=C(c1ccoc1)n1nc(-c2cccn(Cc3ccccn3)c2=O)cc1NCc1ccc(Cl)s1` [Cmpd 25, 3-(5-[(5-chlorothiophen-2-yl)methyl]amino-1-[(furan-3-yl)carbonyl]-1H-pyrazol-3-yl)-1-(pyridin-2-ylmethyl)-1,2-dihydropyridin-2-one] has an IC50 (Human thrombin) of less than 100 nM, an IC50 (Human KLKB1; Table B) of 100 to 1000 nM and an IC50 ([1]; Table B) of 10 to 100 µM. For the same compound, the AUC ([3]; iv, 1 mg/kg) was 40 ng·h/mL, the C0 ([3]; iv, 1 mg/kg) was 100 ng/mL and the Vd ([3]; iv, 1 mg/kg) was 6 L/kg. For the same compound, the clearance ([3]; iv, 1 mg/kg) was 167 mL/min/kg, the half-life ([3]; iv, 1 mg/kg) was 18 min and the AUC ([3]; po, 5 mg/kg) was 10 ng·h/mL. For the same compound, the bioavailability ([3]; po, 5 mg/kg) was 9% and the half-life ([3]; po, 5 mg/kg) was greater than 18 min.

With `CC(C)(C)C(=O)n1nc(-c2cccn(Cc3cccnn3)c2=O)cc1NCc1ccc(Cl)s1` [Cmpd 81, 3-(5-[(5-chlorothiophen-2-yl)methyl]amino-1-(2,2-dimethylpropanoyl)-1H-pyrazol-3-yl)-1-(pyridazin-3-ylmethyl)-1,2-dihydropyridin-2-one] the IC50 (Human thrombin) was less than 100 nM, the IC50 (Human KLKB1; Table B) was 1000 to 10000 nM and the IC50 ([1]; Table B) was greater than 100 µM.

Work on `O=C(c1ccoc1)n1nc(-c2ccc[nH]c2=O)cc1NCc1ccc(Cl)s1` [Cmpd 4, 3-(5-[(5-chlorothiophen-2-yl)methyl]amino-1-[(furan-3-yl)carbonyl]-1H-pyrazol-3-yl)-1,2-dihydropyridin-2-one] yielded an IC50 (Human KLKB1; Table B) of 1000 to 10000 nM, an IC50 ([1]; Table B) of 10 to 100 µM and a Papp at 4 h [2] of 2.5 ×10⁻⁶ cm/s. It also gave an AUC ([3]; iv, 1 mg/kg) of 100 ng·h/mL, a C0 ([3]; iv, 1 mg/kg) of 300 ng/mL and a Vd ([3]; iv, 1 mg/kg) of 10 L/kg. For the same compound, the clearance ([3]; iv, 1 mg/kg) was 167 mL/min/kg, the half-life ([3]; iv, 1 mg/kg) was 60 min and the AUC ([3]; po, 5 mg/kg) was 300 ng·h/mL. The bioavailability ([3]; po, 5 mg/kg) was 60% and the half-life ([3]; po, 5 mg/kg) was 360 min.

For `COc1ccccc1C(=O)n1nc(-c2cccn(Cc3cccnn3)c2=O)cc1NCc1ccc(Cl)s1` [Cmpd 138, 3-(5-[(5-chlorothiophen-2-yl)methyl]amino-1-[(2-methoxyphenyl)carbonyl]-1H-pyrazol-3-yl)-1-(pyridazin-3-ylmethyl)-1,2-dihydropyridin-2-one], the IC50 (Human thrombin) was less than 100 nM, the IC50 (Human KLKB1; Table B) was 100 to 1000 nM and the IC50 ([1]; Table B) was greater than 100 µM.

Work on `COc1ccccc1C(=O)n1nc(-c2cccn(CC(=O)N3CCOCC3)c2=O)cc1NCc1ccc(Cl)s1` [Cmpd 145, 3-(5-[(5-chlorothiophen-2-yl)methyl]amino-1-[(2-methoxyphenyl)carbonyl]-1H-pyrazol-3-yl)-1-[2-(morpholin-4-yl)-2-oxoethyl]-1,2-dihydropyridin-2-one] yielded an IC50 (Human thrombin) of less than 100 nM, an IC50 (Human KLKB1; Table B) of 1000 to 10000 nM and an IC50 ([1]; Table B) greater than 100 µM.

Compound `COc1ccccc1C(=O)n1nc(-c2ccc[nH]c2=O)cc1NCc1ccc(Cl)s1` [Cmpd 132, 3-(5-[(5-chlorothiophen-2-yl)methyl]amino-1-[(2-methoxyphenyl)carbonyl]-1H-pyrazol-3-yl)-1,2-dihydropyridin-2-one] has an IC50 (Human thrombin) of less than 100 nM, an IC50 (Human KLKB1; Table B) of 1000 to 10000 nM and an IC50 ([1]; Table B) greater than 100 µM.

Work on `COCCn1cccc(-c2cc(NCc3ccc(Cl)s3)n(C(=O)c3ccccc3Cl)n2)c1=O` [Cmpd 242, 3-1-[(2-chlorophenyl)carbonyl]-5-[(5-chlorothiophen-2-yl)methyl]amino-1H-pyrazol-3-yl-1-(2-methoxyethyl)-1,2-dihydropyridin-2-one] yielded an IC50 (Human thrombin) of less than 100 nM, an IC50 (Human KLKB1; Table B) of 100 to 1000 nM and an IC50 ([1]; Table B) greater than 100 µM.

With `O=C(c1ccccc1Cl)n1nc(-c2cccn(Cc3ccncc3)c2=O)cc1NCc1ccc(Cl)s1` [Cmpd 248, 3-1-[(2-chlorophenyl)carbonyl]-5-[(5-chlorothiophen-2-yl)methyl]amino-1H-pyrazol-3-yl-1-(pyridin-4-ylmethyl)-1,2-dihydropyridin-2-one] the IC50 (Human thrombin) was less than 100 nM, the IC50 (Human KLKB1; Table B) was 100 to 1000 nM and the IC50 ([1]; Table B) was greater than 100 µM.

Work on `O=C(c1ccoc1)n1nc(-c2cccn(Cc3ccco3)c2=O)cc1NCc1ccc(Cl)s1` [Cmpd 26, 3-(5-[(5-chlorothiophen-2-yl)methyl]amino-1-[(furan-3-yl)carbonyl]-1H-pyrazol-3-yl)-1-(furan-2-ylmethyl)-1,2-dihydropyridin-2-one] yielded an IC50 (Human thrombin) of less than 100 nM, an IC50 (Human KLKB1; Table B) of 1000 to 10000 nM and an IC50 ([1]; Table B) of 10 to 100 µM. For the same compound, the AUC ([3]; iv, 1 mg/kg) was 50 ng·h/mL, the C0 ([3]; iv, 1 mg/kg) was 200 ng/mL and the Vd ([3]; iv, 1 mg/kg) was 5 L/kg. For the same compound, the clearance ([3]; iv, 1 mg/kg) was 167 mL/min/kg, the half-life ([3]; iv, 1 mg/kg) was 18 min and the AUC ([3]; po, 5 mg/kg) was 20 ng·h/mL. For the same compound, the bioavailability ([3]; po, 5 mg/kg) was 8% and the half-life ([3]; po, 5 mg/kg) was greater than 18 min.
